# “Also recorded” adds a separate entry of the source.
# Columns and labels:
# [1] = test system: intracellular levels of cAMP; test: cAMP GloSensor assay in U2OS cells; format: cell-based
# Procedure: The GloSensor™ cAMP Assay (Promega) was used for detecting changes in the intracellular levels of cAMP. Initially, a Greiner Bio-One 96 Well Plate (white, TC treated) was seeded at 8000 cells per 100 μl well, as described above. After 24 hours, the cells were transfected with the pGloSensor™ cAMP Plasmid using the Viafect transfection reagent as above. Between 24 and 48 hours later, allowing for the accumulation of the biosensor, the medium in the 96 well plate was changed to C02-Independent Medium supplemented with GlutaMAX™ (Life Technologies), 10% fetal bovine serum and 2% GloSensor™ cAMP Reagent. The plate was then stood for 2 hours at room temperature to equilibrate. Following the incubation period, the cells were treated with relevant drugs and their luminescence values were measured after 20 minutes in the BMG FLUOstar OPTIMA Microplate Reader, with forskolin as a positive control, and DMSO as a negative control.
# Per2 = Per2 mRNA levels in U2OS cells by qPCR; format: cell-based
# Procedure: Total RNA was extracted using the microRNeasy column method (Qiagen, Hilden, Germany). Quality and quantity of RNA were measured using an Agilent Bioanalyzer and a Nanodrop1000 (Thermo Fisher Scientific, Waltham, MA USA), respectively.
# RNA samples were prepared as described for microarray hybridisation. cDNA was synthesized with a qScript cDNA synthesis kit (Quanta Biosciences, Gaithersburg, MD), and quantitative PCR (qPCR) was conducted with Sybr green I and an SDS7700 thermal cycler (Applied Biosystems, Foster City, CA). Relative quantification of transcript levels was done as described previously (Peirson et al., Nucleic Acids Res. 2003 Jul. 15; 31(14):e73.). The geometric mean of a minimum of three housekeeping genes was used for normalization (Gapdh, ActB, GusB and Rps9 for example).
# Cells from the U2OS (HTB-96) line were obtained, tested and identified. The cells were cultured in T-75 flasks, in Dulbecco's modified Eagle medium (DMEM) supplemented with 10% foetal bovine serum (FBS) and 1% penicillin-streptomycin (P/S) at 37° C. in a humidified atmosphere at 5% CO2. The cells were subcultured every 2 to 4 days in a 1:2 to 1:6 ratio, in accordance with the ATCC recommendations. The cells were counted using a haemocytometer, and their viability in a culture was maintained at above 95%, measured with a Presto Blue exclusion assay according to the manufacturer's specifications. Cells were transfected with siRNAs (typically at 50 nM concentrations, sequences as previously listed), the CRE::Luc (pGL4.29[luc2P/CRE/Hygro] Vector, encoding Luc2P […] under the control of a strong cAMP response element (CRE) promoter containing 3 CRE elements within its sequence; Promega) reporter vector or cAMP-GLOSensor plasmid (Promega) as per manufacturer's instructions using either Lipofectamine RNAimax (Invitrogen) or Lipofectamine3000 (Invitrogen).
# C57Bl/6 mice = test: Re-entrainment in a jet-lag protocol; format: in vivo
# Procedure: Animals were housed under a reversed 12:12 LD cycle (400 lux from white LED lamps) with food and water ad libitum. For phase-shifting studies, C57Bl/6 mice were maintained on running wheels in light tight chambers on a 12:12 LD cycle (400 lux from white LED lamps) and injected with drug at the indicated time points. The drugs were formulated in a vehicle consisting of 5% Koliphor-HS15 (Sigma-Aldrich, UK) 5% Cyclodextran (Sigma-Aldrich, UK) in 0.9% saline. This vehicle was warmed to 37° C. and the indicated drugs kept at a 100× stock in DMSO and mixed at the appropriate concentration to be administered at approximately 300 ul intraperitoneal injection (n=6 to 10). Where the time point of injection was in the dark, the procedure was conducted under dim red light. Where measuring phase-shifting, the mice were then placed in DD and allowed to free run for 14 days in DD, running wheel activity data was collected and analysed on Clocklab (Actimetrics, Wilmette, IL). […]
# Re-entrainment: C57B/6 male mice (80 days or older) were maintained on running wheels in light tight chambers on a 12:12 LD cycle (100 lux from white LED lamps) and injected with drugs as above at ZT6. […] Onset of activity on each day was used to measure phase relative to the LD cycle, data analysed on Clocklab.
# SCN electrical activity = test: In vivo recording from SCN electrode implanted animals; conditions: intraperitoneal injection, 5 mg/kg
# Per1/2 = test: Sleep deprivation, Per1/2 expression within the SCN; format: in vivo; conditions: sleep deprivation decreases Per1/2 expression
compound,measurement,setting,value
"Nc1nc(-c2ccccc2)c2c(n1)-c1cc(OCCN3CCOCC3)ccc1C2=O [JNJ40255293, 2-amino-8-[2-(4-morpholinyl)ethoxy]-4-phenyl-5H-indeno[1,2-d]pyrimidin-5-one]",cAMP levels,[1],does not elevate cAMP levels
same,increase in cAMP,[1]; 30 uM,50%
same,Per2 transcription,Per2; 4 h post-drug treatment,significantly increased
same,Per2 mRNA,"Per2; U2OS cell cultures, 10 uM",Robust increases
same,Per2 mRNA levels,"Per2; U2OS cells, 30 uM",elevated
same,Per2 mRNA levels / expression,"Per2; U2OS cells, qPCR, concentration not given",induce the expression of Per1 and Per2
same,re-entrainment (advance of activity onset),"C57Bl/6 mice; 5 mg/kg single intraperitoneal injection at ZT6, LD cycle advanced 6 h","shifted rapidly; also recorded: advanced entrainment more potently than Tasimelteon, KW6002 (specific A2A antagonist) or KW3902 (specific A1 antagonist)"
same,"re-entrainment, dose response","C57Bl/6 mice; jet-lag protocol, LD cycle advanced 6 h",dose responsively enhanced re-entrainment
same,phase of SCN electrical activity,SCN electrical activity,marked phase shift
same,Per1/2 expression within the SCN,Per1/2,reversed
